In US4327097A, “Novel penicillins” (Toyama Chemical Co., Ltd., priority 1974, dated 1982):
In brackets after ≈: the same amount, converted by molar mass.

Key:
[1] = system: Proteus vulgaris; assay: MIC against clinical isolates; type: cell-based; conditions: Table 5-6, clinical isolate; unit assumed
[2] = system: Escherichia coli; assay: MIC against clinical isolates; type: cell-based; conditions: Table 5-2, clinical isolate; unit assumed
[3] = system: Escherichia coli NIHJ; assay: MIC, plate method, standard strains; type: cell-based; conditions: Table 3, standard strain; unit assumed
In short: (§1)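 Plates of Heart infusion agar (pH 7.4) containing compound dilutions; 10^4-cell inoculum, from 10^6 cells/ml; lowest concentration preventing growth reported.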

[4] = system: Staphylococcus aureus 209p; assay: MIC, plate method, standard strains; type: cell-based; conditions: Table 3, standard strain, Heart infusion agar pH 7.4; unit assumed
In short: as §1

[5] = system: Proteus vulgaris 3027; assay: MIC, plate method, standard strains; type: cell-based; conditions: Table 3, standard strain; unit assumed
In short: as §1

[6] = system: Klebsiella pneumoniae; assay: MIC, plate method, standard strains; type: cell-based; conditions: Table 3, standard strain; unit assumed
In short: as §1

[7] = system: Proteus morganii; assay: MIC against clinical isolates; type: cell-based; conditions: Table 5-6, clinical isolate; unit assumed
[8] = system: β-lactamase, Pseudomonas aeruginosa GN 238; assay: Resistant activity against β-lactamase, iodometric assay; type: biochemical; conditions: β-lactamase from Pseudomonas aeruginosa GN 238; Potassium Penicillin G = 100
Experimental: (3) Resistant activity against β-lactamase, Pseudomonas aerugionsa GN 238:
The resistant activity of each compound against β-lactamase was measured in the manner described below.
β-Lactamase was prepared from Pseudomonas aeruginosa GN 238. This microorganism was cultured in 100 ml of a medium containing 2 g of yeast extract, 10 g of polypeptone, 2 g of glucose, 7 g of disodium hydrogen phosphate, 2 g of potassium dihydrogen phosphate, 1.2 g of ammonium sulfate and 0.4 g of magnesium sulfate, per liter, in a 500-ml Erlenmeyer flask for 6 hrs. at 37° C. with shaking. The resulting cells were collected by centrifugation (5,000 r.p.m.×10 min.), washed three times with 0.1 M phosphate buffer (pH 7.0). Subsequently, the cells were subjected to sonication (20 KHz, 20 min.) and then centrifuged at 15,000 r.p.m. for 60 min. By using the supernatant of enzyme fluid, the resistance of each compound against β-lactamase was determined by the iodometric assay method. Each numeral shown in Table 7 is a relative activity value calculated by assuming as 100 the activity of the control Potassium Penicillin G.

[9] = system: Staphylococcus aureus; assay: MIC against clinical isolates; type: cell-based; conditions: Table 5-1, clinical isolate; unit assumed
[10] = system: Salmonella typhi-murium; assay: MIC against clinical isolates; type: cell-based; conditions: Table 5-5, clinical isolate; unit assumed
[11] = system: Klebsiella pneumoniae; assay: MIC against clinical isolates; type: cell-based; conditions: Table 5-4, clinical isolate; unit assumed
[12] = system: Proteus mirabilis; assay: MIC against clinical isolates; type: cell-based; conditions: Table 5-6, clinical isolate; unit assumed
[13] = system: Shigella flexneri; assay: MIC against clinical isolates; type: cell-based; conditions: Table 5-5, clinical isolate; unit assumed
Experimental: (§2) The minimum inhibitory concentration (MIC) was determined by the plate method disclosed in "Chemotherapy" (Japan), Vol. 16, (1968), pages 98-99. The culture medium used was a Heart infusion agar (pH 7.4). The number of the cells per plate used in the inoculum was 10^4 (10^6 cells/ml).
(§3) MIC was determined in the same manner as in the preceding paragraph (1).

[14] = system: Shigella sonnei; assay: MIC against clinical isolates; type: cell-based; conditions: Table 5-5, clinical isolate; unit assumed
Experimental: as §2, §3

[15] = system: Pseudomonas aeruginosa; assay: MIC against clinical isolates; type: cell-based; conditions: unit assumed
[16] = system: Pseudomonas aeruginosa I.F.O.; assay: MIC, plate method, standard strains; type: cell-based; conditions: Table 3, standard strain; unit assumed
In short: as §1

In the case of `CCCCN1CCN(C(=O)NC(C(=O)NC2C(=O)N3C2SC(C)(C)C3C(=O)O)c2ccccc2)C(=O)C1=O` (single isomer, unassigned) [Compound 39], the MIC Proteus vulgaris [1] is reported as < 0.4 µg/mL, the MIC Escherichia coli GN 3481 [2] is reported as 1.57 µg/mL (≈ 2.88 µM) and the MIC Escherichia coli GN 3611 [2] is reported as > 200 µg/mL. For the same compound, the MIC Escherichia coli K-1 [2] was 1.57 µg/mL (≈ 2.88 µM), the MIC Escherichia coli K-2 [2] was 1.57 µg/mL (≈ 2.88 µM) and the MIC Escherichia coli K-3 [2] was > 200 µg/mL. The MIC Esche--richin coil NIHJ [3] was < 0.1 µg/mL, the MIC Staphylococcus aureus 209p [4] was 0.4 µg/mL (≈ 0.733 µM) and the MIC Proteus vulgaris 3027 [5] was 0.4 µg/mL (≈ 0.733 µM). The MIC Klebsiella pneumoniae [6] was 1.57 µg/mL (≈ 2.88 µM), the MIC Proteus morganii [7] was < 0.4 µg/mL and the “Relative activity (%), resistant activity against β-lactamase” value (“Relative activity (%)” for short) [8] was 15%. For the same compound, the MIC Staphylococcus aureus F-2 [9] was 1.57 µg/mL (≈ 2.88 µM), the MIC Staphylococcus aureus F-3 [9] was 1.57 µg/mL (≈ 2.88 µM) and the MIC Staphylococcus aureus F-5 [9] was > 200 µg/mL. For the same compound, the MIC Staphylococcus aureus MS 8588 [9] was 1.57 µg/mL (≈ 2.88 µM), the MIC Staphylococcus aureus MS 8596 [9] was 1.57 µg/mL (≈ 2.88 µM) and the MIC Salmonella typhi-murium SL 2136 [10] was 100 µg/mL (≈ 183 µM). For the same compound, the MIC Klebsiella pneumoniae GN 917 [11] was 1.57 µg/mL (≈ 2.88 µM), the MIC Proteus mirabilis [12] was < 0.4 µg/mL and the MIC Shigella flexneri JS 11215 [13] was 25 µg/mL (≈ 45.8 µM). It also gave an MIC Shigella flexneri JS 11839 [13] of 0.79 µg/mL (≈ 1.45 µM), an MIC Shigella sonnei JS 11232 [14] of 25 µg/mL (≈ 45.8 µM) and an MIC Shigella sonnei JS 11755 [14] of 1.57 µg/mL (≈ 2.88 µM).

In the case of `CCCCCN1CCN(C(=O)NC(C(=O)NC2C(=O)N3C2SC(C)(C)C3C(=O)O)c2ccccc2)C(=O)C1=O` (single isomer, unassigned) [Compound 45], the MIC Proteus vulgaris [1] is reported as < 0.4 µg/mL, the MIC Escherichia coli GN 3452 [2] is reported as 1.57 µg/mL (≈ 2.81 µM) and the MIC Escherichia coli GN 3481 [2] is reported as 1.57 µg/mL (≈ 2.81 µM). The MIC Escherichia coli GN 3611 [2] was > 200 µg/mL, the MIC Escherichia coli K-2 [2] was 1.57 µg/mL (≈ 2.81 µM) and the MIC Escherichia coli K-3 [2] was 200 µg/mL (≈ 357 µM). For the same compound, the MIC Esche--richin coil NIHJ [3] was < 0.1 µg/mL, the MIC Proteus vulgaris 3027 [5] was 0.4 µg/mL (≈ 0.715 µM) and the “Relative activity (%)” value [8] was 16%. The MIC Staphylococcus aureus F-2 [9] was 1.57 µg/mL (≈ 2.81 µM), the MIC Staphylococcus aureus F-3 [9] was 1.57 µg/mL (≈ 2.81 µM) and the MIC Staphylococcus aureus F-5 [9] was > 200 µg/mL. The MIC Salmonella typhi-murium SL 2136 [10] was 200 µg/mL (≈ 357 µM), the MIC Klebsiella pneumoniae GN 917 [11] was 1.57 µg/mL (≈ 2.81 µM) and the MIC Proteus mirabilis [12] was < 0.4 µg/mL. For the same compound, the MIC Shigella flexneri JS 11215 [13] was 25 µg/mL (≈ 44.7 µM), the MIC Shigella flexneri JS 11839 [13] was 1.57 µg/mL (≈ 2.81 µM) and the MIC Shigella sonnei JS 11232 [14] was 25 µg/mL (≈ 44.7 µM). For the same compound, the MIC Shigella sonnei JS 11755 [14] was 1.57 µg/mL (≈ 2.81 µM), the MIC Pseudomonas aeruginosa GN 1035 ([15]; Table 5-3, clinical isolate) was 50 µg/mL (≈ 89.3 µM) and the MIC Pseudomonas neruginosa S-3 ([15]; Table 5-4, clinical isolate) was 50 µg/mL (≈ 89.3 µM).

For `CCCCCCN1CCN(C(=O)NC(C(=O)NC2C(=O)N3C2SC(C)(C)C3C(=O)O)c2ccccc2)C(=O)C1=O` (single isomer, unassigned) [Compound 46], the MIC Proteus vulgaris [1] was < 0.4 µg/mL, the MIC Escherichia coli GN 3435 [2] was < 0.4 µg/mL and the MIC Escherichia coli GN 3465 [2] was 6.25 µg/mL (≈ 10.9 µM). The MIC Escherichia coli GN 3611 [2] was > 200 µg/mL, the MIC Escherichia coli K-3 [2] was 50 µg/mL (≈ 87.2 µM) and the MIC Escherichia coli K-4 [2] was < 0.4 µg/mL. The MIC Esche--richin coil NIHJ [3] was < 0.1 µg/mL, the MIC Staphylococcus aureus 209p [4] was 0.2 µg/mL (≈ 0.349 µM) and the MIC Pseudomonas aeruginosa I.F.C [16] was 6.25 µg/mL (≈ 10.9 µM). The MIC Proteus vulgaris 3027 [5] was 0.4 µg/mL (≈ 0.697 µM), the MIC Klebsiella pneumoniae [6] was 0.4 µg/mL (≈ 0.697 µM) and the MIC Proteus morganii [7] was < 0.4 µg/mL. For the same compound, the “Relative activity (%)” value [8] was 12%, the MIC Staphylococcus aureus F-1 [9] was 6.25 µg/mL (≈ 10.9 µM) and the MIC Staphylococcus aureus F-2 [9] was 1.57 µg/mL (≈ 2.74 µM). For the same compound, the MIC Staphylococcus aureus F-4 [9] was 6.25 µg/mL (≈ 10.9 µM), the MIC Staphylococcus aureus F-5 [9] was > 200 µg/mL and the MIC Staphylococcus aureus MS 8588 [9] was 1.57 µg/mL (≈ 2.74 µM). For the same compound, the MIC Staphylococcus aureus MS 8619 [9] was < 0.4 µg/mL, the MIC Staphylococcus aureus MS 8684 [9] was 1.57 µg/mL (≈ 2.74 µM) and the MIC Staphylococcus aureus MS 8713 [9] was 6.25 µg/mL (≈ 10.9 µM). For the same compound, the MIC Salmonella typhi-murium SL 858 [10] was < 0.4 µg/mL, the MIC Salmonella typhi-murium SL 2136 [10] was 50 µg/mL (≈ 87.2 µM) and the MIC Klebsiella pneumoniae GN 3850 [11] was 1.57 µg/mL (≈ 2.74 µM). The MIC Klebsiella pneumoniae GN 4081 [11] was 12.5 µg/mL (≈ 21.8 µM), the MIC Klebsiella pneumoniae GN 4117 [11] was 12.5 µg/mL (≈ 21.8 µM) and the MIC Proteus mirabilis [12] was < 0.4 µg/mL. For the same compound, the MIC Shigella flexneri JS 11215 [13] was 6.25 µg/mL (≈ 10.9 µM), the MIC Shigella flexneri JS 11839 [13] was 0.79 µg/mL (≈ 1.38 µM) and the MIC Shigella sonnei JS 11232 [14] was 12.5 µg/mL (≈ 21.8 µM). It also gave an MIC Shigella sonnei JS 11755 [14] of 0.79 µg/mL (≈ 1.38 µM), an MIC Pseudomonas aeruginosa GN ([15]; Table 5-3, clinical isolate, strain number not given) of 12.5 µg/mL (≈ 21.8 µM) and an MIC Pseudomonas aeruginosa GN 82 ([15]; Table 5-3, clinical isolate) of 6.25 µg/mL (≈ 10.9 µM). For the same compound, the MIC Pseudomonas aeruginosa GN 163 ([15]; Table 5-3, clinical isolate) was 6.25 µg/mL (≈ 10.9 µM), the MIC Pseudomonas aeruginosa GN 221 ([15]; Table 5-3, clinical isolate) was 12.5 µg/mL (≈ 21.8 µM) and the MIC Pseudomonas aeruginosa GN 1035 ([15]; Table 5-3, clinical isolate) was 50 µg/mL (≈ 87.2 µM). For the same compound, the MIC Pseudomonas aeruginosa GN 1091 ([15]; Table 5-3, clinical isolate) was 12.5 µg/mL (≈ 21.8 µM), the MIC Pseudomonas aeruginosa GN 2565 ([15]; Table 5-3, clinical isolate) was 12.5 µg/mL (≈ 21.8 µM) and the MIC Pseudomonas aeruginosa GN 2987 ([15]; Table 5-3, clinical isolate) was 6.25 µg/mL (≈ 10.9 µM). It also gave an MIC Pseudomonas neruginosa S-1 ([15]; Table 5-4, clinical isolate) of 50 µg/mL (≈ 87.2 µM), an MIC Pseudomonas neruginosa S-2 ([15]; Table 5-4, clinical isolate) of 50 µg/mL (≈ 87.2 µM) and an MIC Pseudomonas neruginosa S-3 ([15]; Table 5-4, clinical isolate) of 50 µg/mL (≈ 87.2 µM). The MIC Pseudomonas neruginosa S-4 ([15]; Table 5-4, clinical isolate) was 50 µg/mL (≈ 87.2 µM).
